Laboratory results taken from paper PMC12281424, “A Rac-specific competitive inhibitor of guanine nucleotide binding reduces metastasis in triple-negative breast cancer” (Cell Reports Medicine, 2025).

What was measured:
Type in all cases: cell-based
NIH/3T3 cell migration = assay: 1D cell migration (CYTOO plates); conditions: 10^-5 M
Method: NIH3T3cells (1000/well) were seeded in a 96 well plate with […] fibronectin stripes (CytooPlates Motility, CYTOO) in medium with 1% SVF and allowed to spread for 4 h before capturing time-lapse images for 24 h (image/10 min) on a Widefield Leica DMI 6000B drove with Metamorph software. Cells speed was measured with ImageJ software.
Supplementary Fig. 3: Example of one pharmacophore model used for virtual screening. (a) The pharmacophore model shown was created based on RAC1 (grey) and NSC23766 (orange) interaction. The pharmacophore model is formed by two hydrogenbond acceptor(HBA)features,one orientedtowardsthe hydroxylgroup of Ser71 (S71) and the other towards the amine group of Gln74 (Q74), one hydrogen bond donor (HBD) feature pointed to the oxygenatom of Leu70 (L70) and two hydrophobic features (HY) located on certain carbon atoms of NSC23766 and facing residues Val36 (V36), Ala59 (A59), Tyr64 (Y64) and Leu67 (L67). The spheres correspond to locationconstraint. […] (b) Impact of different screening molecules (10^-5 M) on NIH/3T3 cell adhesion (xCELLingence Real-time cellanalysis, Agilent), migration (CYTOO Mobility plates) and proliferation (xCELLingence Real-time cell analysis, Agilent) .The level of RAC activation is determinedby the detection of RAC-GTP (pull-down assay) in NIH/3T3 cell treated with EGF (10 ng/mL) and the differentmolecules and normalize to the level of RAC activity measuredin the presenceof the reference RAC inhibitor EHT1864.
(§1) Supplementary Fig. 4: A41 inhibits RAC-dependent cell functions. (a) Representative records of single NIH/3T3 cell migration on micropatterned fibronectin lines (CYTOO Mobility plates) in the absence (Control)and presenceA41 at 10^-5 M (left panel) and corresponding quantification of migration speed (right panel) (scale bar: 20µm). […] (b) Typical curves showing the cell index representing the adhesion of NIH/3T3 fibroblast (xCELLingence Real-time cell analysis, Agilent) under control condition (Control) and pre-treated with 10 µM A41 or NSC23766 (left panel) and corresponding quantification of cell adhesion speed (right panel). […]

[1] = tested on: RAC1-GTP levels in MDA-MB-468 Luc cells; assay: RAC-GTP immunofluorescence; conditions: 10^-5 M, 1 h
Method: Luciferase (Luc, green) was used to detect the cells. […] (C) Quantification of colony number of indicated cancer cell lines in the presence of A41 (10 μM) expressed as the percentage of control in the absence of A41. […] (D) Immunoblot analysis and corresponding quantification of AKT and P44/42 expression and phosphorylation (pAKT, p44/42) in MDA-MB-468 Luc cells in the absence (−) and presence of NSC23766 or A41 (1 h at 10^−5 M). […] (E) 3D invasion assay of MDA-MB-468 Luc and cancer-associated fibroblasts (CAFs) and corresponding quantification (scale bars: 200 μm).
After indicated treatments, cells were fixed with 4% paraformaldehyde and permeabilized in PBS 0.5% Triton X-100. To assess RAC1 activity, cells were then incubated with RAC-GTP antibody (26903, NewEast Biosciences, King of Prussia, Pa) (dilution 1/500) overnight at room temperature, followed by secondary Alexa 568-labeled anti-mouse antibody (dilution 1/1000). Cancer cells were detected with firefly luciferase antibody (ab21176, Abcam) (dilution 1/500) overnight at room temperature, followed by secondary Alexa 488-labeled anti-rabbit antibody (dilution 1/1000). To assess cytoskeleton organization, cells were incubated with Alexa Fluor 488 phalloidin (A12379, Invitrogen) to visualize F-actin. After staining, cells were mounted in Prolong gold antifade reagent with DAPI and images were captured by a fluorescence microscope.

NIH/3T3 cell adhesion = assay: Cell adhesion assay (xCELLigence impedance); conditions: 10^-5 M
Method: NIH3T3cells (10000/well) were seeded in a 96 well plate microtiter xCELLigence assay plate (E-Plate) (ACEA Biosciences Inc.) and placed on the Real-time xCELLigence Cell Analyzer (Roche Applied Science) platform at 37°C to measure the “cell index” every 5 min for a period of 6 h. The cell index unit is defined as (Rn − Rb)/15. Rn is the cell electrode impedance of the well when it contains cells. Rb is the background impedance of the well with the media alone.
Supplementary Fig. 3: Example of one pharmacophore model used for virtual screening. (a) The pharmacophore model shown was created based on RAC1 (grey) and NSC23766 (orange) interaction. […] (b) Impact of different screening molecules (10^-5 M) on NIH/3T3 cell adhesion (xCELLingence Real-time cellanalysis, Agilent), migration (CYTOO Mobility plates) and proliferation (xCELLingence Real-time cell analysis, Agilent) .The level of RAC activation is determinedby the detection of RAC-GTP (pull-down assay) in NIH/3T3 cell treated with EGF (10 ng/mL) and the differentmolecules and normalize to the level of RAC activity measuredin the presenceof the reference RAC inhibitor EHT1864.
as §1

[2] = tested on: NIH/3T3 cell proliferation; assay: Cell proliferation (xCELLigence); conditions: 10^-5 M
Description: Supplementary Fig. 3: Example of one pharmacophore model used for virtual screening. (a) The pharmacophore model shown was created based on RAC1 (grey) and NSC23766 (orange) interaction. The pharmacophore model is formed by two hydrogenbond acceptor(HBA)features,one orientedtowardsthe hydroxylgroup of Ser71 (S71) and the other towards the amine group of Gln74 (Q74), one hydrogen bond donor (HBD) feature pointed to the oxygenatom of Leu70 (L70) and two hydrophobic features (HY) located on certain carbon atoms of NSC23766 and facing residues Val36 (V36), Ala59 (A59), Tyr64 (Y64) and Leu67 (L67). The spheres correspond to locationconstraint. The pharmacophoremodel was completedby thirteen exclusion spheres centered on the main residues of RAC1 defining the binding site. The P loop, the switch 1 and the switch 2 are shown in yellow, orange and green respectively. (b) Impact of different screening molecules (10^-5 M) on NIH/3T3 cell adhesion (xCELLingence Real-time cellanalysis, Agilent), migration (CYTOO Mobility plates) and proliferation (xCELLingence Real-time cell analysis, Agilent) .The level of RAC activation is determinedby the detection of RAC-GTP (pull-down assay) in NIH/3T3 cell treated with EGF (10 ng/mL) and the differentmolecules and normalize to the level of RAC activity measuredin the presenceof the reference RAC inhibitor EHT1864.

RAC1 = target: T1, RAC1 (Mus musculus, UniProt P63001); assay: RAC-GTP pull-down assay, EGF-stimulated NIH/3T3 fibroblasts; conditions: 10^-5 M, 1 h, EGF 10 ng/mL 5 min
T1 construct: endogenous in cells; host or cells: NIH/3T3 fibroblasts (ATCC CRL-1658), EGF-stimulated
Method: Figure 2 Identification of a new RAC1 inhibitor (A) Effect of A41 and NSC23766 on ruffle formation (white arrows) induced by EGF (10 ng/mL) in NIH 3T3 cells in serum-free culture medium (CTL). Inhibitors were added at indicated concentration 1 h prior to EGF stimulation. To assess cytoskeleton organization, cells were incubated with Alexa Fluor 488 phalloidin to visualize F-actin. Results shown are representative of 3 independent experiments. Corresponding concentration-response curves have been established by counting the percentages of cells with ruffles (scale bars: 10 μm). (B) Immunoblot analysis and associated quantification of RAC-GTP level and total RAC expression in NIH 3T3 cells stimulated by EGF (10 ng/mL, 5 min) and pre-incubated or not (−) with NSC23766, A41, or A415 at 10^−5 M for 1 h (∗∗∗p < 0.001 vs. controls without EGF stimulation, ^###p < 0.001 vs. controls with EGF stimulation) (N > 3). (C) Representative surface plasmon resonance (SPR) sensograms of binding of immobilized RAC1 with increasing concentrations of A41 with or without EDTA (20 mM) (N > 3). (D) Representative in vitro nucleotide exchange catalyzed by the DH-PH of TIAM (10 nM) measured by the binding of fluorescent mant-GTP (1 μM) to RAC1 (0.5 μM, preloaded with GDP) in the presence of indicated concentrations of A41 (out of N = 6). Dotted lines correspond to the experimental curves, and continuous lines represent the fit of experimental points. (E) Kobs and Kmax were determined in each condition (N = 6). (F) Predicted binding modes of A4 to the NSC23766-binding site (left) or the GDP-binding pocket of RAC1 (right). In the NSC23766-binding site of RAC1, the compound A4 (carbon atoms in blue) makes 2 hydrogen bonds (green dotted line) with Ser71 (S71) and 10 hydrophobic interactions (pink dotted line) with Ala3 (A3), Lys5 (K5), Val36 (V36), Trp56 (W56), Tyr64 (Y64), and Leu67 (L67) leading to a docking score of −6.03 kcal/mol. The GDP molecule is shown with fine line. The P loop is shown in yellow, the switch 1 in orange, and the switch 2 in green. […]
Pull-down assay using GST-PBD fusion proteins were performed on NIH-3T3 lysates to assess RAC1 activity as previously described.[63] The precipitated active RAC was subjected to SDS-PAGE and detected by immunoblot with anti-RAC1 antibody (BD biosciences) (dilution 1/1000). […]
screening molecules (10^-5 M) on NIH/3T3 cell adhesion (xCELLingence Real-time cellanalysis, Agilent), migration (CYTOO Mobility plates) and proliferation (xCELLingence Real-time cell analysis, Agilent) .The level of RAC activation is determinedby the detection of RAC-GTP (pull-down assay) in NIH/3T3 cell treated with EGF (10 ng/mL) and the differentmolecules and normalize to the level of RAC activity measuredin the presenceof the reference RAC inhibitor EHT1864.

[3] = tested on: RAC1-dependent membrane ruffle formation in NIH 3T3 cells; assay: EGF-induced membrane ruffle formation
Method: Figure 2 Identification of a new RAC1 inhibitor (A) Effect of A41 and NSC23766 on ruffle formation (white arrows) induced by EGF (10 ng/mL) in NIH 3T3 cells in serum-free culture medium (CTL). Inhibitors were added at indicated concentration 1 h prior to EGF stimulation. To assess cytoskeleton organization, cells were incubated with Alexa Fluor 488 phalloidin to visualize F-actin. Results shown are representative of 3 independent experiments. Corresponding concentration-response curves have been established by counting the percentages of cells with ruffles (scale bars: 10 μm). (B) Immunoblot analysis and associated quantification of RAC-GTP level and total RAC expression in NIH 3T3 cells stimulated by EGF (10 ng/mL, 5 min) and pre-incubated or not (−) with NSC23766, A41, or A415 at 10^−5 M for 1 h (∗∗∗p < 0.001 vs. controls without EGF stimulation, ^###p < 0.001 vs. controls with EGF stimulation) (N > 3). […] (D) Representative in vitro nucleotide exchange catalyzed by the DH-PH of TIAM (10 nM) measured by the binding of fluorescent mant-GTP (1 μM) to RAC1 (0.5 μM, preloaded with GDP) in the presence of indicated concentrations of A41 (out of N = 6). […] (E) Kobs and Kmax were determined in each condition (N = 6). […]
After indicated treatments, cells were fixed with 4% paraformaldehyde and permeabilized in PBS 0.5% Triton X-100. […] Cancer cells were detected with firefly luciferase antibody (ab21176, Abcam) (dilution 1/500) overnight at room temperature, followed by secondary Alexa 488-labeled anti-rabbit antibody (dilution 1/1000). […] After staining, cells were mounted in Prolong gold antifade reagent with DAPI and images were captured by a fluorescence microscope. […]
Supp. […] For each molecule, druglikeness has been assessed according to Lipinski’s rules: molecular weight (MW)<500; high lipophilicity (LogP<5); less than 5 hydrogen bond donors (HBD); less than 10 hydrogen bond acceptors (HBA). The log P was calculated by using OSIRIS – Data Warrior software. […] IC50 was determined experimentally from the inhibition

| Compound | Migration (% inhib) (NIH/3T3 cell migration) [%] | effect on RAC1 activity [1] | Adhesion (% inhib) (NIH/3T3 cell adhesion) [%] | Proliferation (% ctrl) [2] [%] | RAC1 activation (active GTP-bound RAC1) (RAC1) | inhibitory effect on RAC1 [3] |
| --- | --- | --- | --- | --- | --- | --- |
| CCN(CC)CCCC(C)Nc1nc(C)cc(Nc2ccc3nc(C)cc(N)c3c2)n1 (stereo not shown) [NSC23766] | 20 | little effect | 34 | 131 | no significant effect | – |
| COc1ccc(OC)c(NC(=O)c2ccc(NC(=O)CCSc3ccc(C)cc3)cc2)c1 [Compound A415] | – | – | – | – | no significant effect | loss of the inhibitory effect on RAC1 |
